In one assay the target is T1, Aurora kinase A (Homo sapiens, UniProt O14965).
T1 sequence (O14965 whole entry): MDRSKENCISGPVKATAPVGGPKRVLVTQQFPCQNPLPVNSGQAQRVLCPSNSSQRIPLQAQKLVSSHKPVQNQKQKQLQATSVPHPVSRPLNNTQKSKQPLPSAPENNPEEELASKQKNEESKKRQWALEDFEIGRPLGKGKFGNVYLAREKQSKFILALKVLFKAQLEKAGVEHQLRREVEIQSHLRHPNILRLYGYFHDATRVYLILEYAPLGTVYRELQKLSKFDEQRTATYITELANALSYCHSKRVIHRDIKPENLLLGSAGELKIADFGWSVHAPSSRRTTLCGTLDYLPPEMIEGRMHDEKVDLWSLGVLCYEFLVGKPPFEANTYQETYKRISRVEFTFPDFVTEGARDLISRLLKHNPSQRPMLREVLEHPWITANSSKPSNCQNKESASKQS

The target in assay [1] is Calcium/calmodulin-dependent protein kinase type II subunit delta (Homo sapiens, UniProt Q13557).
Assay [2] concerns the target Cyclin-dependent kinase 7 (Homo sapiens, UniProt P50613).
For assay [3], the target named is Casein kinase I isoform epsilon (Homo sapiens, UniProt P49674).
In assay [4] the target is Serine/threonine-protein kinase/endoribonuclease IRE1 (Homo sapiens, UniProt O75460).
Assay [5] addresses Putative heat shock protein HSP 90-beta 2 (Homo sapiens, UniProt Q58FF8).
The target of assay [6] is T2, Phosphorylase b kinase gamma catalytic chain, liver/testis isoform (Homo sapiens, UniProt P15735).
T2 sequence (P15735 whole entry): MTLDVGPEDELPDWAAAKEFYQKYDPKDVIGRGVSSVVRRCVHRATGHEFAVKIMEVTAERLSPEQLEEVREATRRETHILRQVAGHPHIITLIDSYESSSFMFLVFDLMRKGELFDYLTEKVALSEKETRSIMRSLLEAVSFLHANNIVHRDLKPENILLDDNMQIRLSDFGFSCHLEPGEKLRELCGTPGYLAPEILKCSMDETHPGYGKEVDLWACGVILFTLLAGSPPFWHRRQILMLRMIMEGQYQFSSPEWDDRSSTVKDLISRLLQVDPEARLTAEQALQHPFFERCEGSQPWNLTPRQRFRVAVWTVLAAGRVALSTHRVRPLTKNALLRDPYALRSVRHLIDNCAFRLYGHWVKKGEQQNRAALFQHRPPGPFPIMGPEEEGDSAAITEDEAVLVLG

The target in assay [7] is Serine/threonine-protein kinase N1 (Homo sapiens, UniProt Q16512).
Assay [8] addresses TRAF2 and NCK-interacting protein kinase (Homo sapiens, UniProt Q9UKE5).
The target of assay [9] is T3, Uncharacterized protein FLJ45252 (Homo sapiens, UniProt Q6ZSR9).
T3 sequence (Q6ZSR9 whole entry): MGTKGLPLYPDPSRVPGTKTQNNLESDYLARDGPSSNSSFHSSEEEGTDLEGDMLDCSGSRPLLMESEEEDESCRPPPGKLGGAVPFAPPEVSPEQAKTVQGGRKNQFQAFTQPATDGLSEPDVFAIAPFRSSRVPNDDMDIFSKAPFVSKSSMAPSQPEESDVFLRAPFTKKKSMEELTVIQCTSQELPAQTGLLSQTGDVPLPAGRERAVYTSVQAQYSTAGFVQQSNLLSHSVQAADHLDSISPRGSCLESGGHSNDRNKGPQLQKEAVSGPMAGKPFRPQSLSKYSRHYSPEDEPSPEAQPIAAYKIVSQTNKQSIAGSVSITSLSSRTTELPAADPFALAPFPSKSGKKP
The conditions noted are these: read-out: Kd apparent; k-562, colo 205, sk-n-be(2) and mv-4-11.

Calls of active or inactive are those of the source. Rule as the data show it, for most assays here: actives have a measured Kd and inactives only a lower limit.
Also: in the data inactive means no Kd found up to 30 µM.

Putative heat shock protein HSP 90-beta 2, sequence (Q58FF8 whole entry, canonical isoform): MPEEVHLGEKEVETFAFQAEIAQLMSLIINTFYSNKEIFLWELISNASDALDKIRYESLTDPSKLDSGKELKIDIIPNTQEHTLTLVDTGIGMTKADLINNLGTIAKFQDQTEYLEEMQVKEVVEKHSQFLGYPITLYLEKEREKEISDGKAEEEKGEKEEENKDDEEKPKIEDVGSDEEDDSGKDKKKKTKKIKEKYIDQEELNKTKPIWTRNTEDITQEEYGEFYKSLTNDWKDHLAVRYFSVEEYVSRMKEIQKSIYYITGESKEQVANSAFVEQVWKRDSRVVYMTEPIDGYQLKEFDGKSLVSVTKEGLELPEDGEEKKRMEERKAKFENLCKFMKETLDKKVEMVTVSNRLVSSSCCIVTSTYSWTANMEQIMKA
Casein kinase I isoform epsilon, sequence (P49674 whole entry, canonical isoform): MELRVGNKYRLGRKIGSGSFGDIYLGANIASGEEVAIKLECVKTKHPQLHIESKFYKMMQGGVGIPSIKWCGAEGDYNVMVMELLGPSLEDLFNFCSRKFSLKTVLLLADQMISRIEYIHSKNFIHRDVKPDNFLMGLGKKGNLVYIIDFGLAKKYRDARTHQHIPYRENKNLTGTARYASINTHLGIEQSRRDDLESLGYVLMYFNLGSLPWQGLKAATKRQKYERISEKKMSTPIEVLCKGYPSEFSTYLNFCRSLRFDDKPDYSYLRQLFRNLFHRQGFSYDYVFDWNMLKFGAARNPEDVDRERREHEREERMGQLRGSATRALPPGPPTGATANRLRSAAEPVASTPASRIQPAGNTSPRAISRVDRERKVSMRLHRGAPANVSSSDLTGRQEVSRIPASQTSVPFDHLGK
TRAF2 and NCK-interacting protein kinase, sequence (Q9UKE5 whole entry): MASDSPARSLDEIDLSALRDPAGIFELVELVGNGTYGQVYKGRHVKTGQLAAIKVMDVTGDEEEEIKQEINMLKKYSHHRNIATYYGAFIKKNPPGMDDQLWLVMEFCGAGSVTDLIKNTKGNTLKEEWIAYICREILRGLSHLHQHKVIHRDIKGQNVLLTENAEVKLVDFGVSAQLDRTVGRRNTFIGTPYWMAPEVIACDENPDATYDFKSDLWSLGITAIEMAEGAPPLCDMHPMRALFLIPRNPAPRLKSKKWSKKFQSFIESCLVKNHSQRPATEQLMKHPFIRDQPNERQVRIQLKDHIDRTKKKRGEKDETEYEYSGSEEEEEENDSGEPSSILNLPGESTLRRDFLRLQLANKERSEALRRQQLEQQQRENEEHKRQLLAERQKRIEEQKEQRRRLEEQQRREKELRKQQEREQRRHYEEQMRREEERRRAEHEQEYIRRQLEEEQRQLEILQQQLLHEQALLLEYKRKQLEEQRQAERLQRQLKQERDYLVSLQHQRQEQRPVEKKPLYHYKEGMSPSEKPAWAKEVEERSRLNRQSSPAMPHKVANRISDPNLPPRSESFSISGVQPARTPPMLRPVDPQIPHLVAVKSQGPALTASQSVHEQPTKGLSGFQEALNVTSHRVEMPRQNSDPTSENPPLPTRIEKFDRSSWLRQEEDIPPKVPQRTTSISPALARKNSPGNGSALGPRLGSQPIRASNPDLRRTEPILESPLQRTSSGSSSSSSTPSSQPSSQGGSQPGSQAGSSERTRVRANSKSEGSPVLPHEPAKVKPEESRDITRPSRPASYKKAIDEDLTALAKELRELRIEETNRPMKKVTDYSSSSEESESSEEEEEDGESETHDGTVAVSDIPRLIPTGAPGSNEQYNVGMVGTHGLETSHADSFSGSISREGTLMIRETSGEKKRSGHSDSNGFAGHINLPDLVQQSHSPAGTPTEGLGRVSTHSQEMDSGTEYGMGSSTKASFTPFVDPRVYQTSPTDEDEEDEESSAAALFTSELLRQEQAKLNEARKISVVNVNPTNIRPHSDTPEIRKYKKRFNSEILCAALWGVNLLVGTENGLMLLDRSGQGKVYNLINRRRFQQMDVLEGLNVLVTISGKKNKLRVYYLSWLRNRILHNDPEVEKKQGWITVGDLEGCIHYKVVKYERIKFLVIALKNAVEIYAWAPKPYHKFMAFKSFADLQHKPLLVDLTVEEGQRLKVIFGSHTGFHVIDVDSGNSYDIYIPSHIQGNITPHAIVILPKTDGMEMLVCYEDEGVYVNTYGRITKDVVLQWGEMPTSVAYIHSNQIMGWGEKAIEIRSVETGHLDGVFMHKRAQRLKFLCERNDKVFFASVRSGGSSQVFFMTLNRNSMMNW
Cyclin-dependent kinase 7, sequence (P50613 whole entry, canonical isoform): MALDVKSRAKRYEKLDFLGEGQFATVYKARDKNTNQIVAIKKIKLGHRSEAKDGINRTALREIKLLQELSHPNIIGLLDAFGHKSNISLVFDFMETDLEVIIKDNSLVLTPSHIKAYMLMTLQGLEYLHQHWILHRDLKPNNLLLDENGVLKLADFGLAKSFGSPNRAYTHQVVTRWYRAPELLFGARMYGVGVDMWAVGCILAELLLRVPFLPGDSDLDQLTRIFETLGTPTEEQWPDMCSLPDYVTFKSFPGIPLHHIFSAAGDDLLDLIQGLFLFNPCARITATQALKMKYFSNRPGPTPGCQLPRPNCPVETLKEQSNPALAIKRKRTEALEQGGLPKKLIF
Serine/threonine-protein kinase/endoribonuclease IRE1, sequence (O75460 whole entry): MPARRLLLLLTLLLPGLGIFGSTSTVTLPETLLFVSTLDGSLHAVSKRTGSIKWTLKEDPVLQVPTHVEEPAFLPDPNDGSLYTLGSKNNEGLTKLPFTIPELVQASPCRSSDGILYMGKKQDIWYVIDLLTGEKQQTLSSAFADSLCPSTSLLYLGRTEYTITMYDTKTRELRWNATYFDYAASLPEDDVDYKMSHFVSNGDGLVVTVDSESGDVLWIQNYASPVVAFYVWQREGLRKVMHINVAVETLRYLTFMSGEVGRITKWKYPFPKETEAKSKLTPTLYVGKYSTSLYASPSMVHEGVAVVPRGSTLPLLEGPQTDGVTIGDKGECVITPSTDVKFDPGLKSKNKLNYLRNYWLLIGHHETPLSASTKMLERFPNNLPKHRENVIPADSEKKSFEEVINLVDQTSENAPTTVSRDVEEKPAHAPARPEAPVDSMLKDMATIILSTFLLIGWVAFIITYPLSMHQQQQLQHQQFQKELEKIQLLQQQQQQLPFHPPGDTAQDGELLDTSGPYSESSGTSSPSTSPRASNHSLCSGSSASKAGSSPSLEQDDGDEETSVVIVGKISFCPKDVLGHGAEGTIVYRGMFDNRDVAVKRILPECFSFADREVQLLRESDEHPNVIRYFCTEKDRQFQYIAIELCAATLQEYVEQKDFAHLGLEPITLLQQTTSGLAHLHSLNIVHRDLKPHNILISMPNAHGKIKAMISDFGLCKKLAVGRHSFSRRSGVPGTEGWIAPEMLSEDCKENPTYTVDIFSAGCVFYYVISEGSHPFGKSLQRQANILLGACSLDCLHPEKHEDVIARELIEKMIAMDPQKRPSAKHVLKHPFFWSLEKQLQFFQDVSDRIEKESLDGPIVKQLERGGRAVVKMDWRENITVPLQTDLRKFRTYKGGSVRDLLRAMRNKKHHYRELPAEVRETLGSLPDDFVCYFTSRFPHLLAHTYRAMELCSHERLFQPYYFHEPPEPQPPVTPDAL
Serine/threonine-protein kinase N1, sequence (Q16512 whole entry): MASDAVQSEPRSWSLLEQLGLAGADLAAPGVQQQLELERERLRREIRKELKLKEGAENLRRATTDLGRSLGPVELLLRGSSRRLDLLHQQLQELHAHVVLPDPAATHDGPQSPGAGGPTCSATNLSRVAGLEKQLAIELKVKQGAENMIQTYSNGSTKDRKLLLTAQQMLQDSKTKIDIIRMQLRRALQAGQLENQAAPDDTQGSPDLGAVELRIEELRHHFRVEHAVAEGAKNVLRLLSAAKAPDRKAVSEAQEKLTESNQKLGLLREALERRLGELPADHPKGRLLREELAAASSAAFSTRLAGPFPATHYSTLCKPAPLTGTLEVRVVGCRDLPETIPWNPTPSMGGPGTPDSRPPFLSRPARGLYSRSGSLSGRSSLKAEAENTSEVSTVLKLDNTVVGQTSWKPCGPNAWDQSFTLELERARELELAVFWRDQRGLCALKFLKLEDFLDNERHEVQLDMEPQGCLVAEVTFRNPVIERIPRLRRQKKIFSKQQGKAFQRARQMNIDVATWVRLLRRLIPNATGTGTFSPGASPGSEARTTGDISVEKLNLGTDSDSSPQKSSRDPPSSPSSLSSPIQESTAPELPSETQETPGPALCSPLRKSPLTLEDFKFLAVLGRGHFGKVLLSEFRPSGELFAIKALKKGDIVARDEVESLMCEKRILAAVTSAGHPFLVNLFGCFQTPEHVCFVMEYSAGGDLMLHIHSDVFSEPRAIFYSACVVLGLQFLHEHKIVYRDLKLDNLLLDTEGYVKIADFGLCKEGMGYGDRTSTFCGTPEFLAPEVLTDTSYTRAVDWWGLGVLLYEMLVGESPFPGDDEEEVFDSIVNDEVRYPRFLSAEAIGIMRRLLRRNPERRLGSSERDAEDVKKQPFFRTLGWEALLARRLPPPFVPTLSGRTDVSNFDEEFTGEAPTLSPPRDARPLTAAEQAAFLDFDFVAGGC
Calcium/calmodulin-dependent protein kinase type II subunit delta, sequence (Q13557 whole entry): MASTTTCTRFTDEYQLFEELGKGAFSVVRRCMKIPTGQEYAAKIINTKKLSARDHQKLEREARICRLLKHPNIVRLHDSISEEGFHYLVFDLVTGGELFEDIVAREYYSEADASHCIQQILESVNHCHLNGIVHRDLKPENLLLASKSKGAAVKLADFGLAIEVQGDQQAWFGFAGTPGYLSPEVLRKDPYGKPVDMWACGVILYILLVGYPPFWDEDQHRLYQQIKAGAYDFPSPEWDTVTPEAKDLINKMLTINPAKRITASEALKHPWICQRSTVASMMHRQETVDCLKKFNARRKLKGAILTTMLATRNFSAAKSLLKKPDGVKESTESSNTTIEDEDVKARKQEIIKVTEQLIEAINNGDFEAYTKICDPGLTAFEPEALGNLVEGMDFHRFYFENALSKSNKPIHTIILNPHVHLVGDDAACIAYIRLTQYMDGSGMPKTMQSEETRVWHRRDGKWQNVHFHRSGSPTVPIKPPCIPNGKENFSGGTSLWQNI

In the case of `C[C@@H](Oc1cc(C(=O)Nc2ccc(C(=O)N3CCN(C)CC3)cc2)nnc1N)c1c(Cl)ccc(F)c1Cl`, the Kd (on Aurora kinase A; in assay [1]; in [2]; in [3]; in assay [4]; in assay [5]) was > 30 µM (inactive) throughout. Besides, the Kd in [6] was > 30 µM (inactive); in assay [7], > 30 µM (inactive); in assay [8] it was > 30 µM (inactive); in [9], 3.36 µM (active).
For the compound `COCc1c(-c2ccc(NC(=O)Nc3cc(C(F)(F)F)ccc3F)c(F)c2)c2c(N)ncnn2c1CN1CCOCC1`, the Kd (at Aurora kinase A; in [1]; in assay [2]; in assay [3]; in assay [4]; in assay [5]) was > 30 µM (inactive) each time. For the same compound, the Kd in assay [6], in assay [7], in assay [8] and in assay [9] was > 30 µM (inactive) in each case.
With `Nc1ncnc2c1c(-c1cccc(OCc3ccccc3)c1)cn2[C@H]1C[C@@H](CN2CCC2)C1` [AEW-541], the Kd at Aurora kinase A is > 30 µM (inactive); in assay [1], > 30 µM (inactive); in [2] it was > 30 µM (inactive); in assay [3], 60.5 µM (active); in [4], > 30 µM (inactive); in assay [5], > 30 µM (inactive). Moreover, the Kd in assay [6], in assay [7], in [8] and in assay [9] was > 30 µM (inactive) throughout.
For `COc1cc([C@@H]2c3cc4c(cc3[C@H](O)[C@H]3COC(=O)[C@@H]23)OCO4)cc(OC)c1OC` [AXL-1717], the Kd (on Aurora kinase A; in assay [1]; in assay [2]; in assay [3]; in assay [4]; in assay [5]) was > 30 µM (inactive) in each case. For the same compound, the Kd in assay [6], in [7], in [8] and in assay [9] was > 30 µM (inactive) each time.
As for `Cc1cc(Nc2ncc(Cl)c(Nc3ccccc3S(=O)(=O)C(C)C)n2)c(OC(C)C)cc1C1CCNCC1` [CERITINIB], the Kd (on Aurora kinase A; in assay [1]; in assay [2]; in [3]; in assay [4]; in assay [5]) was > 30 µM (inactive) throughout. Further, the Kd in assay [6], in assay [7], in [8] and in assay [9] was > 30 µM (inactive) throughout.
With `C#Cc1cccc(Nc2ncnc3cc(OC)c(OCCCCCCC(=O)NO)cc23)c1` [CUDC-101], the Kd (at Aurora kinase A; in assay [1]; in assay [2]; in assay [3]; in assay [4]; in assay [5]) was > 30 µM (inactive) each time. Besides, the Kd in assay [6], in [7], in assay [8] and in [9] was > 30 µM (inactive) in each case.
For the compound `Cc1cccc(-c2nn3c(c2-c2ccnc4ccc(C(N)=O)cc24)CCC3)n1` [GALUNISERTIB], the Kd is > 30 µM (inactive) at Aurora kinase A; > 30 µM (inactive) in [1]; > 30 µM (inactive) in assay [2]; 7.9 µM (active) in assay [3]; > 30 µM (inactive) in assay [4]; > 30 µM (inactive) in [5]. Also, the Kd in assay [6] is > 30 µM (inactive); in assay [7] it was > 30 µM (inactive); in assay [8], 1.21 µM; in assay [9] it was > 30 µM (inactive).
Regarding `NC1(c2ccc(-c3nc4ccn5c(=O)[nH]nc5c4cc3-c3ccccc3)cc2)CCC1` [MK-2206], the Kd (on Aurora kinase A; in [1]; in assay [2]; in assay [3]; in [4]; in [5]) was > 30 µM (inactive) in each case. Also, the Kd in assay [6], in [7], in [8] and in assay [9] was > 30 µM (inactive) in each case.
For the compound `CN(C[C@@H]1COCCO1)S(=O)(=O)Nc1ccc2ccc3ncc(-c4cnn(C)c4)cc3c(=O)c2c1` [MK-2461], the Kd (at Aurora kinase A; in assay [1]; in assay [2]; in assay [3]; in assay [4]; in assay [5]) was > 30 µM (inactive) throughout. The Kd in [6] is > 30 µM (inactive); in [7], > 30 µM (inactive); in assay [8], > 30 µM (inactive); in assay [9] it was 2.59 µM (active).
Regarding `FC(F)(F)c1ccc(/C=C/c2nc(COc3ccc(CCCCn4ccnn4)cc3)co2)cc1` [MUBRITINIB], the Kd (at Aurora kinase A; in assay [1]; in assay [2]; in assay [3]; in assay [4]; in [5]) was > 30 µM (inactive) throughout. Further, the Kd in assay [6], in assay [7], in assay [8] and in [9] was > 30 µM (inactive) in each case.
For `CN1CCN(CCOc2cc(OC3CCOCC3)c3c(Nc4c(Cl)ccc5c4OCO5)ncnc3c2)CC1` [SARACATINIB], the Kd (at Aurora kinase A; in assay [1]; in assay [2]; in assay [3]; in assay [4]; in assay [5]) was > 30 µM (inactive) in each case. Also, the Kd in assay [6] was > 30 µM (inactive); in [7] it was > 30 µM (inactive); in [8], 1.38 µM (active); in [9], > 30 µM (inactive).
Regarding `COc1cc2c(Nc3ccc(Cl)c(Cl)c3F)ncnc2cc1OC[C@@H]1C[C@@H]2CN(C)C[C@@H]2C1` [TESEVATINIB], the Kd at Aurora kinase A was > 30 µM (inactive); in [1] it was > 30 µM (inactive); in assay [2], > 30 µM (inactive); in assay [3], 1.02 µM; in assay [4] it was > 30 µM (inactive); in assay [5] it was > 30 µM (inactive). The Kd in assay [6], in assay [7], in assay [8] and in assay [9] was > 30 µM (inactive) each time.
On to `C[C@@H](NC(=O)c1ncnc(N)c1Cl)c1ncc(C(=O)Nc2cc(C(F)(F)F)c(Cl)cn2)s1` [TOVORAFENIB], for which the Kd (at Aurora kinase A; in assay [1]; in assay [2]; in assay [3]; in assay [4]; in [5]) was > 30 µM (inactive) each time. Also, the Kd in [6], in assay [7], in assay [8] and in assay [9] was > 30 µM (inactive) in each case.

Values taken from ChEMBL document CHEMBL3991601, “The target landscape of clinical kinase drugs” (Science, 2017).
